What all share (format): cell-based
For one experiment, the system named is CMV. In words: Viral qPCR assay, CMV. The conditions noted are these: infected cells, viral genome copies by qPCR normalized to PPIA, read-out: CMV Cell EC50. The procedure:
(§1) MRC5 cells, Vero cells, and MeWo cells were obtained from ATCC, and were maintained at 37° C./5% CO2/90% relative humidity in Minimal Essential Medium with 10% fetal bovine serum, […] L-glutamine, 100 units/ml penicillin and 100 ug/ml streptomycin. Assay plates were prepared by dispensing compounds dissolved in DMSO into wells of 384 well collagen-coated plates using an ECHO acoustic dispenser. Each test compound was tested in a 10-point, serial 3-fold dilution. Controls included uninfected cells and infected cells treated only with DMSO. Assays were initiated by mixing selected cells, in suspension, with virus, and dispensing 50 μl/well infected cells to pre-plated compounds. Plates were incubated at 37° C./5% CO2/90% relative humidity for ˜72 hrs to permit genomic replication, and infected cells were lysed by the addition of an equal volume of lysis buffer (10 mM Tris-HCl, pH8, 50 mM KCl, 2 mM MgCl2, 0.45% NP-40, 0.45% Tween-20, and 100 µg/ml proteinase K). An aliquot of the lysate was then transferred to a 384-well PCR plate and incubated at 56° C. for 1 hour, and then at 95° C. for 10 minutes. Levels of the selected viral gene and of the cellular control, PPIA, were measured in separate 10 μl qPCR assays using TaqMan® Gene Expression Master Mix (Applied Biosystems), and an 7900HT Fast Real-Time PCR System with 384-Well Block Module. 7-point, serial 10-fold dilutions of a plasmid standard were run on each plate to generate a standard curve, and genome copies numbers were calculated by plotting experimental Ct onto linear regression of the standard curve. Viral genome copy numbers were normalized by cellular control copy number, and compound effects were normalized to the window defined by the controls. Calculated % effects were fit using a 4-parameter algorithm, and EC50 was reported.

A further experiment deals with HSV2. In words: Viral qPCR assay, HSV2. Particulars: infected cells, viral genome copies by qPCR normalized to PPIA, read-out: HSV2 Cell EC50. The protocol: as §1
A general note: In qPCR the cycle at which signal appears reflects the starting amount.

The test system of a further experiment is HSV1. In words: Viral qPCR assay, HSV1. The conditions noted are these: infected cells, viral genome copies by qPCR normalized to PPIA, read-out: HSV1 Cell EC50. The procedure:
as §1

Where two headings read alike, the source gives them in different places.

The term EC50 denotes the midpoint of the concentration-response curve. Take `Cc1cnnc(-c2cc3nc(C)n(Cc4ccc(Cl)cc4)c(=O)c3cc2O[C@H]2CCN3C(=O)OC[C@@H]3C2)c1` [Example 136]: the EC50 in the experiment with CMV (Human betaherpesvirus 5, 72 h) is 826 nM; in the experiment with HSV2 (Human alphaherpesvirus 2, 72 h), 2150 nM; in the experiment on HSV1 (Human alphaherpesvirus 1, 72 h) it was 1720 nM.
The matching figures for `Cc1nc2cc(-c3cc4cnccn4c3)c(O[C@H]3CCN4C(=O)OC[C@@H]4C3)cc2c(=O)n1Cc1ccc(Cl)cc1` [Example 99]: 272 nM, 77 nM and 118 nM.
As to `Cc1nc2cc(-c3nn4ccnc4s3)c(O[C@H]3CCN4C(=O)OC[C@@H]4C3)cc2c(=O)n1Cc1ccc(C#N)cc1` [Example 146], the concentration giving a half-maximal response (EC50) in the experiment with CMV (Human betaherpesvirus 5, 72 h) was 67 nM; in the experiment on HSV2 (Human alphaherpesvirus 2, 72 h), 143 nM; in the experiment on HSV1 (Human alphaherpesvirus 1, 72 h), 93 nM.
Take `Cc1nc2cc(-c3nc4cnccn4n3)c(O[C@H]3CCN4C(=O)OC[C@@H]4C3)cc2c(=O)n1Cc1ccc(Cl)cc1` [Example 101]: the EC50 was found to be 449 nM with CMV (Human betaherpesvirus 5, 72 h); 88 nM in the experiment on HSV2 (Human alphaherpesvirus 2, 72 h); 223 nM in the experiment on HSV1 (Human alphaherpesvirus 1, 72 h).
Regarding `Cc1nc2cc(-c3cnc(C4CCOCC4)nc3)c(O[C@H]3CCN4C(=O)OC[C@@H]4C3)cc2c(=O)n1Cc1ccc(Cl)cc1` [Example 115], the EC50 turned out to be 258 nM in the experiment with CMV (Human betaherpesvirus 5, 72 h); 111 nM in the experiment on HSV2 (Human alphaherpesvirus 2, 72 h); 313 nM in the experiment with HSV1 (Human alphaherpesvirus 1, 72 h).
The like results for `Cc1nn(C(F)F)cc1-c1cc2nc(C)n(Cc3ccc(Cl)cc3)c(=O)c2cc1O[C@H]1CCN2C(=O)OC[C@@H]2C1` [Example 92] were, in that order, 379 nM, 506 nM and 796 nM.
The matching figures for `O=C1OC[C@@H]2C[C@@H](Oc3cc4c(=O)n(Cc5ccc(Cl)cc5)c(N5CC(O)C5)nc4cc3-c3cnn(C(F)F)c3)CCN12` [Example 145]: 101 nM, 112 nM and 108 nM.
The matching figures for `Cc1nc2nc(-c3ccn(C(F)F)n3)c(O[C@H]3CCN4C(=O)OC[C@@H]4C3)cc2c(=O)n1Cc1ccc(Cl)cc1` [Example 20]: 117 nM, 209 nM and 247 nM.
With `Cc1nc2cc(-c3cnccn3)c(O[C@H]3CCN4C(=O)OC[C@@H]4C3)cc2c(=O)n1Cc1ccc(Cl)cc1` [Example 122], the EC50 in the experiment with CMV (Human betaherpesvirus 5, 72 h) is 382 nM; in the experiment with HSV2 (Human alphaherpesvirus 2, 72 h), 543 nM; with HSV1 (Human alphaherpesvirus 1, 72 h) it was 844 nM.
The matching figures for `Cc1nccc(-c2cc3nc(C)n(Cc4ccc(Cl)cc4)c(=O)c3cc2O[C@H]2CCN3C(=O)OC[C@@H]3C2)n1` [Example 131]: 102 nM, 157 nM and 223 nM.
The like results for `Cc1nc2cc(-c3ncccn3)c(O[C@H]3CCN4C(=O)OC[C@@H]4C3)cc2c(=O)n1Cc1ccc(Cl)cc1` [Example 119] were, in that order, 397 nM, 921 nM and 933 nM.
With `Cc1nc2cc(-c3cc4n(n3)C(C(F)(F)F)CN(C)C4)c(O[C@H]3CCN4C(=O)OC[C@@H]4C3)cc2c(=O)n1Cc1ccc(Cl)cc1` (single isomer, unassigned) [Example 152], the figures for the EC50 with CMV (~72 hrs), with HSV2 (~72 hrs) and with HSV1 (~72 hrs) were 159 nM, 226 nM and 231 nM, respectively.
Take `Cc1cnc(-c2cc3nc(C)n(Cc4ccc(Cl)cc4)c(=O)c3cc2O[C@H]2CCN3C(=O)OC[C@@H]3C2)nc1` [Example 117]: the EC50 with CMV (Human betaherpesvirus 5, 72 h) amounted to 304 nM; with HSV2 (Human alphaherpesvirus 2, 72 h) it was 455 nM; in the experiment with HSV1 (Human alphaherpesvirus 1, 72 h) it was 652 nM.
Take `Cc1nc2cc(-c3cnc4nccn4c3)c(O[C@H]3CCN4C(=O)OC[C@@H]4C3)cc2c(=O)n1Cc1ccc(Cl)cc1` [Example 96]: the half-maximal effective concentration (EC50) with CMV (Human betaherpesvirus 5, 72 h) was found to be 2060 nM; in the experiment with HSV2 (Human alphaherpesvirus 2, 72 h) it was 3280 nM; with HSV1 (Human alphaherpesvirus 1, 72 h) it was 2920 nM.
The like results for `Cc1nc2cc(-c3ccc4ncoc4c3)c(O[C@H]3CCN4C(=O)OC[C@@H]4C3)cc2c(=O)n1Cc1ccc(Cl)cc1` [Example 89] were, in that order, 375 nM, 273 nM and 436 nM.
The like results for `Cc1nc2cc(-c3cn4cccnc4n3)c(O[C@H]3CCN4C(=O)OC[C@@H]4C3)cc2c(=O)n1Cc1ccc(Cl)cc1` [Example 116] were, in that order, 127 nM, 62 nM and 106 nM.
The like results for `O=C1OC[C@@H]2C[C@@H](Oc3cc4c(=O)n(Cc5ccc(Cl)cc5)c(CC5CCOCC5)nc4cc3-c3cnn(C(F)F)c3)CCN12` [Example 121] were, in that order, 299 nM, 128 nM and 188 nM.
On to `O=C1OC[C@@H]2C[C@@H](Oc3cc4c(=O)n(Cc5ccc(Cl)cc5)c(O)nc4cc3-c3cnn(C(F)F)c3)CCN12` [Example 150], for which the EC50 in the experiment with CMV (Human betaherpesvirus 5, 72 h) worked out at 79 nM; with HSV2 (Human alphaherpesvirus 2, 72 h) it was 88 nM; with HSV1 (Human alphaherpesvirus 1, 72 h), 53 nM.
As for `Cc1nc2cc(-c3cnc(OC4CC4)nc3)c(O[C@H]3CCN4C(=O)OC[C@@H]4C3)cc2c(=O)n1Cc1ccc(Cl)cc1` [Example 114], the EC50 in the experiment on CMV (Human betaherpesvirus 5, 72 h) came to 348 nM; in the experiment with HSV2 (Human alphaherpesvirus 2, 72 h), 124 nM; in the experiment on HSV1 (Human alphaherpesvirus 1, 72 h), 323 nM.
Consider `Cc1nc2cc(-c3cnc(N)nn3)c(O[C@H]3CCN4C(=O)OC[C@@H]4C3)cc2c(=O)n1Cc1ccc(Cl)cc1` [Example 144], for which the concentration giving a half-maximal response (EC50) in the experiment with CMV (Human betaherpesvirus 5, 72 h) came to 137 nM; in the experiment on HSV2 (Human alphaherpesvirus 2, 72 h), 319 nM; in the experiment on HSV1 (Human alphaherpesvirus 1, 72 h), 189 nM.
Turning to `O=C1OC[C@@H]2C[C@@H](Oc3cc4c(=O)n(Cc5ccc(Cl)cc5)c(OC5CCC(O)CC5)nc4cc3-c3cnn(C(F)F)c3)CCN12` (single isomer, unassigned) [Example 141], the EC50 in the experiment on CMV (~72 hrs) is 205 nM; with HSV2 (Human alphaherpesvirus 2, 72 h) it was 184 nM; in the experiment on HSV1 (Human alphaherpesvirus 1, 72 h), 258 nM.
On to `Cc1nc2cc(-c3cccnn3)c(O[C@H]3CCN4C(=O)OC[C@@H]4C3)cc2c(=O)n1Cc1ccc(Cl)cc1` [Example 127], for which the concentration giving a half-maximal response (EC50) in the experiment with CMV (Human betaherpesvirus 5, 72 h) was 280 nM; in the experiment with HSV2 (Human alphaherpesvirus 2, 72 h), 793 nM; in the experiment with HSV1 (Human alphaherpesvirus 1, 72 h), 484 nM.
Take `O=C1OC[C@@H]2C[C@@H](Oc3cc4c(=O)n(Cc5ccc(Cl)cc5)c(CCN5CCOCC5)nc4cc3-c3cnn(C(F)F)c3)CCN12` [Example 120]: the half-maximal effective concentration (EC50) in the experiment on CMV (Human betaherpesvirus 5, 72 h) came out at 957 nM; in the experiment with HSV2 (Human alphaherpesvirus 2, 72 h) it was 1020 nM; with HSV1 (Human alphaherpesvirus 1, 72 h), 2410 nM.
Consider `Cc1nc2cc(-c3cc4ncccn4n3)c(O[C@H]3CCN4C(=O)OC[C@@H]4C3)cc2c(=O)n1Cc1ccc(Cl)cc1` [Example 100], for which the 50% effective concentration (EC50) in the experiment with CMV (Human betaherpesvirus 5, 72 h) was 63 nM; in the experiment with HSV2 (Human alphaherpesvirus 2, 72 h) it was 43 nM; in the experiment with HSV1 (Human alphaherpesvirus 1, 72 h) it was 86 nM.
The matching figures for `Cc1nc2cc(-c3cn4ccnc4s3)c(O[C@H]3CCN4C(=O)OC[C@@H]4C3)cc2c(=O)n1Cc1ccc(Cl)cc1` [Example 16]: 33 nM, 18 nM and 42 nM.
The matching figures for `COc1ncncc1-c1cc2nc(C)n(Cc3ccc(Cl)cc3)c(=O)c2cc1O[C@H]1CCN2C(=O)OC[C@@H]2C1` [Example 94]: 1470 nM, 1880 nM and 2410 nM.
As for `O=C1OC[C@@H]2C[C@@H](Oc3cc4c(=O)n(Cc5ccc(Cl)cc5)c(OC5CCOCC5)nc4cc3-c3cnn(C(F)F)c3)CCN12` [Example 126], the EC50 in the experiment with CMV (Human betaherpesvirus 5, 72 h) stood at 205 nM; in the experiment on HSV2 (Human alphaherpesvirus 2, 72 h), 140 nM; in the experiment on HSV1 (Human alphaherpesvirus 1, 72 h), 372 nM.
On to `COc1nc2cc(-c3cnn(C(F)F)c3)c(O[C@H]3CCN4C(=O)OC[C@@H]4C3)cc2c(=O)n1Cc1ccc(Cl)cc1` [Example 148], for which the concentration for a half-maximal effect (EC50) came to 275 nM in the experiment on CMV (Human betaherpesvirus 5, 72 h); 78 nM in the experiment on HSV2 (Human alphaherpesvirus 2, 72 h); 213 nM in the experiment on HSV1 (Human alphaherpesvirus 1, 72 h).
